Key:
Type in all cases: ADME
[1] = Michaelis behavior of the enzyme (PicK/6-His)
[2] = Catalytic constant expressed as Kinetic behavior of enzyme (PicK/6-His)
[3] = Kinetic behavior of the enzyme (PicK/6-His) was evaluated
[4] = Ratio of kcat to Km was evaluated.

Row | Structure (SMILES) | Km [1] | k cat [2] | Km [3] | kcat/Km [4]
1 | CC[C@H]1OC(=O)[C@H](C)C(=O)[C@H](C)[C@@H](O[C@@H]2O[C@H](C)C[C@H](N(C)C)[C@H]2O)[C@@H](C)C[C@@H](C)C(=O)/C=C/[C@H]1C | 88 µM | 2 s⁻¹ | 440 µM | 23000 M⁻¹ s⁻¹
2 | CC[C@H]1OC(=O)[C@H](C)[C@@H](O[C@@H]2O[C@H](C)C[C@H](N(C)C)[C@H]2O)[C@@H](C)C[C@@H](C)C(=O)/C=C/[C@H]1C | 130 µM | 1.1 s⁻¹ | 2200 µM | 8000 M⁻¹ s⁻¹
